For this assay, the target named is T1, full-length MALT1 protein His-MALT1(1-824) (Homo sapiens, UniProt Q9UDY8).
T1 construct: full-length MALT1 protein His-MALT1(1-824); His (N); made in house; host or cells: baculovirus-infected insect cells
T1 sequence (Q9UDY8 1-824): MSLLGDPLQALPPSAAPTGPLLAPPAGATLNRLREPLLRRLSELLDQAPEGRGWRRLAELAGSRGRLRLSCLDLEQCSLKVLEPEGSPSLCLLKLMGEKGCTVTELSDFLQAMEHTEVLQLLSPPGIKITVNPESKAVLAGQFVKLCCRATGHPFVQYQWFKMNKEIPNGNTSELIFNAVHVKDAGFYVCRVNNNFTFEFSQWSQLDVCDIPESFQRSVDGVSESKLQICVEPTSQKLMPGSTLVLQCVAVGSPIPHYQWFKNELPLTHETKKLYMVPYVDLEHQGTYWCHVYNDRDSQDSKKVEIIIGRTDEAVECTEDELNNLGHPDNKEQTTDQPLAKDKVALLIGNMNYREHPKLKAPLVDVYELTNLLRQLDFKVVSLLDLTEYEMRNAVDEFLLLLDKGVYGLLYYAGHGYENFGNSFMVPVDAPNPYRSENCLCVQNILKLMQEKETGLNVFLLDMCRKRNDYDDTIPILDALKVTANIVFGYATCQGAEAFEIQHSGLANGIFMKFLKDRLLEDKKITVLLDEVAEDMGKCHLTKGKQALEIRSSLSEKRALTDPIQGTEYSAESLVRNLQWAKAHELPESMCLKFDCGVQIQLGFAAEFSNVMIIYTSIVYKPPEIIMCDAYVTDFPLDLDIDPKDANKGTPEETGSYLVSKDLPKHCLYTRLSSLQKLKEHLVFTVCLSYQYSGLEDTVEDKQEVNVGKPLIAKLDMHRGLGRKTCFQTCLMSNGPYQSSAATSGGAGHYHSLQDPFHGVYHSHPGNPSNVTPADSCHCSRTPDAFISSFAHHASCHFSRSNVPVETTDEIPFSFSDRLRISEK
Nature of the assay: MALT1 protease assay (Ac-LRSR-AMC tetrapeptide substrate, fluorescence). As to conditions: 1 nM MALT1, 25 μM Ac-LRSR-AMC, 2 h pre-incubation, 8 hr incubation at RT. The assay is classed as biochemical. Put shortly:
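Full-length His-MALT1(1-824) from baculovirus-infected insect cells (1 nM) was pre-incubated 2 h at RT with compounds (0.1% DMSO), then 25 μM Ac-LRSR-AMC added in 50 mM Tris pH 7.5, 600 mM sodium citrate, 1 mM DTT, 1 mM EDTA, 0.05% BSA. Fluorescence (ex 355/em 460 nm) read after 8 h at RT; IC50 by non-linear regression of % remaining activity.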

Each structure is given as a SMILES string.

The text below walks through data of US20260049085A1, “CYCLIC COMPOUNDS AND METHODS OF USING SAME” (SCHRÖDINGER, INC., priority 2022, published 2026).

For orientation: IC50 means the concentration at which inhibition is half-maximal. A low value points to greater potency. As to `C[C@@]1(c2ccn(C(F)F)n2)C[C@H](C(=O)Nc2cnc(OC(F)F)c(C#N)c2)c2cnc3cc(F)nn3c21` (single isomer, unassigned) [Example 112], the IC50 lay within 100 to 1000 nM. Under `C[C@]1(c2ccn(C(F)F)n2)C[C@@H](C(=O)Nc2cnc(OC(F)F)c(C#N)c2)c2cnc3cc(F)nn3c21` (single isomer, unassigned) [Example 113] stands 100 to 1000 nM; under `CC1(c2ccn(C(F)F)n2)CC(C(=O)Nc2cnc(-c3ncc(F)cn3)c(Cl)c2)c2cnc3cc(F)nn3c21` (single isomer, unassigned) [Example 114], 10 to 100 nM. With `CC1(c2ccn(C(F)F)n2)CC(C(=O)Nc2cnc(-c3ncc(F)cn3)c(Cl)c2)c2cnc3cc(F)nn3c21` (single isomer, unassigned) [Example 115] the figure was 100 to 1000 nM; with `CC1(c2ccn(C(F)F)n2)CC(C(=O)Nc2cnc(-c3ncc(F)cn3)c(C(F)(F)F)c2)c2cnc3cc(F)nn3c21` (single isomer, unassigned) [Example 117], 100 to 1000 nM; with `C[C@]1(c2cnn(C(F)F)c2)C[C@H](C(=O)Nc2cnc(-c3ncncc3F)c(C(F)(F)F)c2)c2cnc3cc(F)nn3c21` (single isomer, unassigned) [Example 118], 10 to 100 nM. Consider `C[C@@]1(c2cnn(C(F)F)c2)C[C@@H](C(=O)Nc2cnc(-c3ncncc3F)c(C(F)(F)F)c2)c2cnc3cc(F)nn3c21` (single isomer, unassigned) [Example 119], for which the IC50 is not below 1000 nM. Under `CC(F)(F)n1cc([C@]2(C)C[C@@H](C(=O)Nc3cnc(-n4nccn4)c(Cl)c3)c3cnc4cc(F)nn4c32)cn1` (single isomer, unassigned) [Example 121] stands not below 1000 nM. With `CC(F)(F)n1cc([C@]2(C)C[C@H](C(=O)Nc3cnc(-n4nccn4)c(Cl)c3)c3cnc4cc(F)nn4c32)cn1` (single isomer, unassigned) [Example 122] the figure was 100 to 1000 nM; with `CC(F)(F)n1cc([C@@]2(C)C[C@@H](C(=O)Nc3cnc(-n4nccn4)c(Cl)c3)c3cnc4cc(F)nn4c32)cn1` (single isomer, unassigned) [Example 123], 100 to 1000 nM; with `C[C@@]1(c2ccn(C(F)F)n2)C[C@@H](C(=O)Nc2cnc(-n3nccn3)c(C(F)(F)F)c2)c2cnc3cc(F)nn3c21` (single isomer, unassigned) [Example 125], not below 1000 nM. Molecule `C[C@@]1(c2ccn(C(F)F)n2)C[C@H](C(=O)Nc2cnc(-n3nccn3)c(C(F)(F)F)c2)c2cnc3cc(F)nn3c21` (single isomer, unassigned) [Example 126] registered an IC50 of 10 to 100 nM. `C[C@]1(c2ccn(C(F)F)n2)C[C@@H](C(=O)Nc2cnc(-n3nccn3)c(C(F)(F)F)c2)c2cnc3cc(F)nn3c21` (single isomer, unassigned) [Example 127] returned an IC50 of 10 to 100 nM. Molecule `CC1(c2cnn(C(F)F)c2)CC(C(=O)Nc2cnc(-c3ncc(F)cn3)c(C(F)(F)F)c2)c2cnc3cc(F)nn3c21` (single isomer, unassigned) [Example 133] had an IC50 of 100 to 1000 nM. Under `CC1(c2cnn(C(F)F)c2)CC(C(=O)Nc2cnc(-c3ncc(F)cn3)c(Cl)c2)c2cnc3cc(F)nn3c21` (single isomer, unassigned) [Example 135] stands 100 to 1000 nM; under `C[C@@]1(c2ccn(C(F)F)n2)C[C@@H](C(=O)Nc2cnc(-c3ncccn3)c(C(F)(F)F)c2)c2cnc3cc(F)nn3c21` (single isomer, unassigned) [Example 137], not below 1000 nM; under `C[C@@]1(c2ccn(C(F)F)n2)C[C@H](C(=O)Nc2cnc(-c3ncccn3)c(C(F)(F)F)c2)c2cnc3cc(F)nn3c21` (single isomer, unassigned) [Example 138], 100 to 1000 nM. Under `C[C@]1(c2ccn(C(F)F)n2)C[C@@H](C(=O)Nc2cnc(-c3ncccn3)c(C(F)(F)F)c2)c2cnc3cc(F)nn3c21` (single isomer, unassigned) [Example 139] stands 100 to 1000 nM; under `C[C@@]1(c2ccn(C(F)F)n2)C[C@@H](C(=O)Nc2cnc(-c3ncccn3)c(Cl)c2)c2cnc3cc(F)nn3c21` (single isomer, unassigned) [Example 141], not below 1000 nM; under `C[C@@]1(c2ccn(C(F)F)n2)C[C@H](C(=O)Nc2cnc(-c3ncccn3)c(Cl)c2)c2cnc3cc(F)nn3c21` (single isomer, unassigned) [Example 142], not below 1000 nM. Take `C[C@]1(c2ccn(C(F)F)n2)C[C@@H](C(=O)Nc2cnc(-c3ncccn3)c(Cl)c2)c2cnc3cc(F)nn3c21` (single isomer, unassigned) [Example 143]: the IC50 was not below 1000 nM. With `Cn1ccc([C@]2(C)C[C@@H](C(=O)Nc3cnc(-n4nccn4)c(C(F)(F)F)c3)c3cnc4cc(F)nn4c32)n1` (single isomer, unassigned) [Example 145] the figure was not below 1000 nM. The molecule `Cn1ccc([C@]2(C)C[C@H](C(=O)Nc3cnc(-n4nccn4)c(C(F)(F)F)c3)c3cnc4cc(F)nn4c32)n1` (single isomer, unassigned) [Example 146] returned an IC50 of 100 to 1000 nM. `Cn1ccc([C@@]2(C)C[C@@H](C(=O)Nc3cnc(-n4nccn4)c(C(F)(F)F)c3)c3cnc4cc(F)nn4c32)n1` (single isomer, unassigned) [Example 147] yielded an IC50 of 100 to 1000 nM.

In turn, `C[C@@]1(c2cnn(C(F)F)c2)C[C@@H](C(=O)Nc2cnc(-c3ncccn3)c(C(F)(F)F)c2)c2cnc3cc(F)nn3c21` (single isomer, unassigned) [Example 149] had an IC50 not below 1000 nM.

`C[C@@]1(c2cnn(C(F)F)c2)C[C@H](C(=O)Nc2cnc(-c3ncccn3)c(C(F)(F)F)c2)c2cnc3cc(F)nn3c21` (single isomer, unassigned) [Example 150] yielded an IC50 of 100 to 1000 nM. With `C[C@]1(c2cnn(C(F)F)c2)C[C@@H](C(=O)Nc2cnc(-c3ncccn3)c(C(F)(F)F)c2)c2cnc3cc(F)nn3c21` (single isomer, unassigned) [Example 151] the figure was 100 to 1000 nM; with `C[C@]1(c2ccn(C3CC3)n2)C[C@H](C(=O)Nc2cnc(-n3nccn3)c(Cl)c2)c2cnc3cc(F)nn3c21` (single isomer, unassigned) [Example 152], less than 10 nM. The molecule `C[C@@]1(c2ccn(C3CC3)n2)C[C@@H](C(=O)Nc2cnc(-n3nccn3)c(Cl)c2)c2cnc3cc(F)nn3c21` (single isomer, unassigned) [Example 153] had an IC50 not below 1000 nM. For `C[C@@]1(c2ccn(C3CC3)n2)C[C@H](C(=O)Nc2cnc(-n3nccn3)c(Cl)c2)c2cnc3cc(F)nn3c21` (single isomer, unassigned) [Example 154], the IC50 is 100 to 1000 nM. `C[C@]1(c2ccn(C3CC3)n2)C[C@@H](C(=O)Nc2cnc(-n3nccn3)c(Cl)c2)c2cnc3cc(F)nn3c21` (single isomer, unassigned) [Example 155] displayed an IC50 not below 1000 nM. As for `C[C@]1(c2cnn(C(F)F)c2)C[C@H](C(=O)Nc2cnc(-c3ncncc3F)c(Cl)c2)c2cnc3cc(F)nn3c21` (single isomer, unassigned) [Example 156], the IC50 is 10 to 100 nM. Under `C[C@@]1(c2cnn(C(F)F)c2)C[C@@H](C(=O)Nc2cnc(-c3ncncc3F)c(Cl)c2)c2cnc3cc(F)nn3c21` (single isomer, unassigned) [Example 157] stands not below 1000 nM; under `CC1(n2ccc([C@@]3(C)C[C@H](C(=O)Nc4cnc(-c5ncccn5)c(C(F)(F)F)c4)c4cnc5cc(F)nn5c43)n2)CC1` (single isomer, unassigned) [Example 158], 10 to 100 nM. `CC1(n2ccc([C@]3(C)C[C@@H](C(=O)Nc4cnc(-c5ncccn5)c(C(F)(F)F)c4)c4cnc5cc(F)nn5c43)n2)CC1` (single isomer, unassigned) [Example 159] gave an IC50 not below 1000 nM.

As to `CC1(n2ccc([C@]3(C)C[C@H](C(=O)Nc4cnc(-c5ncccn5)c(C(F)(F)F)c4)c4cnc5cc(F)nn5c43)n2)CC1` (single isomer, unassigned) [Example 160], the IC50 is 100 to 1000 nM. Molecule `CC1(n2ccc([C@@]3(C)C[C@@H](C(=O)Nc4cnc(-c5ncccn5)c(C(F)(F)F)c4)c4cnc5cc(F)nn5c43)n2)CC1` (single isomer, unassigned) [Example 161] yielded an IC50 not below 1000 nM. On to `CC1(c2ccn(C(F)F)n2)CC(C(=O)Nc2cnc(-c3cccnn3)c(C(F)(F)F)c2)c2cnc3cc(F)nn3c21` (single isomer, unassigned) [Example 162], for which the IC50 was in the range of 10 to 100 nM.
